From US9211310B2, “Use of a Chinese medicine composition in preparing medicaments for treating secondary prevention of myocardial infarction” (TASLY PHARMACEUTICAL GROUP CO., LTD, priority 2010, dated 2015)

Tested on: patients after acute myocardial infarction
Assay: TCM symptom score, total and single (chest pain, chest tightness, short breath, fatigue, palpitation, spontaneous perspiration, pale complexion), same clinical trial
Assay type: in vivo, human
Details: for chest pain score 0, number of patients / chest pain score 0, percent of patients / chest pain score 3, number of patients / chest pain score 3, percent of patients / chest pain score 6, number of patients / chest pain score 6, percent of patients / chest pain score 9, number of patients / chest pain score 9, percent of patients / chest tightness score 0, number of patients / chest tightness score 0, percent of patients / chest tightness score 3, number of patients / chest tightness score 3, percent of patients / chest tightness score 6, number of patients / chest tightness score 6, percent of patients / chest tightness score 9, number of patients / chest tightness score 9, percent of patients: 12 months after treatment
Description: 3508 patients who were in accordance with the diagnostic standards of AMI for 28 days to 2 years and differentiated as Qi deficiency and blood stagnation syndrome by TCM were studied. 0.5 g Chinese medicine composition prepared by the method of EXAMPLE 1 (Coded as QSYQ) was administrated half an hour after meal, 3 times per day.
They included the overall survival time, angina pectoris score, TCM symptom score and life quality score, where angina pectoris score, TCM symptom score and life quality score were evaluated at randomization, in 1st, 3rd, 6th, 9th, 12th month after treatment and 18th month after follow-up.
The analysis method referred to the angina pectoris score.

[1] = 12 months after treatment-baseline, FAS
[2] = 12 months after treatment-baseline, PP
[3] = FAS, 12 months after treatment-treatment

With `CC(=O)Oc1ccccc1C(=O)O` [Control group, aspirine] the “change of chest tightness score 9, number of patients” value [1] was 5, the “change of chest tightness score 9, percent of patients” value [1] was “(0.29%)” and the “change of chest tightness score −3, number of patients” value [1] was 83. For the same molecule, the “change of chest tightness score −3, percent of patients” value [1] was “(4.86%)”, the “change of chest tightness score −6, number of patients” value [1] was 3 and the “change of chest tightness score −6, percent of patients” value [1] was “(0.18%)”. The “change of chest tightness score −9, number of patients” value [1] was 0, the “change of chest tightness score −9, percent of patients” value [1] was “(0.00%)” and the “change of chest pain score 0, number of patients” value [2] was 760. For the same molecule, the “change of chest pain score 0, percent of patients” value [2] was “(54.36%)”, the “change of chest pain score 3, number of patients” value [2] was 455 and the “change of chest pain score 3, percent of patients” value [2] was “(32.55%)”. The “change of chest pain score 6, number of patients” value [2] was 131, the “change of chest pain score 6, percent of patients” value [2] was “(9.37%)” and the “change of chest pain score 9, number of patients” value [2] was 5. For the same molecule, the “change of chest pain score 9, percent of patients” value [2] was “(0.36%)”, the “change of chest pain score −3, number of patients” value [2] was 45 and the “change of chest pain score −3, percent of patients” value [2] was “(3.22%)”. For the same molecule, the “change of chest pain score −6, number of patients” value [2] was 2, the “change of chest pain score −6, percent of patients” value [2] was “(0.14%)” and the “change of chest tightness score 0, number of patients” value [2] was 721. For the same molecule, the “change of chest tightness score 0, percent of patients” value [2] was “(51.54%)”, the “change of chest tightness score 3, number of patients” value [2] was 539 and the “change of chest tightness score 3, percent of patients” value [2] was “(38.53%)”. For the same molecule, the “change of chest tightness score 6, number of patients” value [2] was 79, the “change of chest tightness score 6, percent of patients” value [2] was “(5.65%)” and the “change of chest tightness score 9, number of patients” value [2] was 4. For the same molecule, the “change of chest tightness score 9, percent of patients” value [2] was “(0.29%)”, the “change of chest tightness score −3, number of patients” value [2] was 54 and the “change of chest tightness score −3, percent of patients” value [2] was “(3.86%)”. For the same molecule, the “change of chest tightness score −6, number of patients” value [2] was 2, the “change of chest tightness score −6, percent of patients” value [2] was “(0.14%)” and the “change of chest tightness score −9, number of patients” value [2] was 0. For the same molecule, the “change of chest tightness score −9, percent of patients” value [2] was “(0.00%)”, the “chest pain score 0, number of patients” value (FAS) was 858 and the “chest pain score 0, percent of patients” value (FAS) was “(49.94%)”. The “chest pain score 3, number of patients” value (FAS) was 607, the “chest pain score 3, percent of patients” value (FAS) was “(35.33%)” and the “chest pain score 6, number of patients” value (FAS) was 248. For the same molecule, the “chest pain score 6, percent of patients” value (FAS) was “(14.44%)”, the “chest pain score 9, number of patients” value (FAS) was 5 and the “chest pain score 9, percent of patients” value (FAS) was “(0.29%)”. The “chest tightness score 0, number of patients” value (FAS) was 858, the “chest tightness score 0, percent of patients” value (FAS) was “(49.94%)” and the “chest tightness score 3, number of patients” value (FAS) was 607. The “chest tightness score 3, percent of patients” value (FAS) was “(35.33%)”, the “chest tightness score 6, number of patients” value (FAS) was 248 and the “chest tightness score 6, percent of patients” value (FAS) was “(14.44%)”. For the same molecule, the “chest tightness score 9, number of patients” value (FAS) was 5, the “chest tightness score 9, percent of patients” value (FAS) was “(0.29%)” and the “chest pain score 0, number of patients” value (PP) was 725. For the same molecule, the “chest pain score 0, percent of patients” value (PP) was “(51.67%)”, the “chest pain score 3, number of patients” value (PP) was 501 and the “chest pain score 3, percent of patients” value (PP) was “(35.71%)”. For the same molecule, the “chest pain score 6, number of patients” value (PP) was 176, the “chest pain score 6, percent of patients” value (PP) was “(12.54%)” and the “chest pain score 9, number of patients” value (PP) was 1. For the same molecule, the “chest pain score 9, percent of patients” value (PP) was “(0.07%)”, the “chest tightness score 0, number of patients” value (PP) was 725 and the “chest tightness score 0, percent of patients” value (PP) was “(51.67%)”. The “chest tightness score 3, number of patients” value (PP) was 501, the “chest tightness score 3, percent of patients” value (PP) was “(35.71%)” and the “chest tightness score 6, number of patients” value (PP) was 176. The “chest tightness score 6, percent of patients” value (PP) was “(12.54%)”, the “chest tightness score 9, number of patients” value (PP) was 1 and the “chest tightness score 9, percent of patients” value (PP) was “(0.07%)”. For the same molecule, the “change of short breath 0, % of patients” value [3] was “(55.85%)”, the “change of short breath 2, % of patients” value [3] was “(32.92%)” and the “change of short breath 2, number of patients” value [3] was 563. The “change of short breath 4, % of patients” value [3] was “(4.09%)”, the “change of short breath 4, number of patients” value [3] was 70 and the “change of short breath 6, % of patients” value [3] was “(0.70%)”. The “change of short breath 6, number of patients” value [3] was 12, the “change of short breath −2, % of patients” value [3] was “(6.32%)” and the “change of short breath −2, number of patients” value [3] was 108. The “change of short breath −4, % of patients” value [3] was “(0.12%)”, the “change of short breath −4, number of patients” value [3] was 2 and the “distribution of total score of TCM symptom: Medium, number of patients” value (FAS, 1 month after treatment) was 675. The “distribution of total score of TCM symptom: Medium, percentage of patients” value (FAS, 1 month after treatment) was “(40.11%)”, the “distribution of total score of TCM symptom: Mild, number of patients” value (FAS, 1 month after treatment) was 989 and the “distribution of total score of TCM symptom: Mild, percentage of patients” value (FAS, 1 month after treatment) was “(58.76%)”. For the same molecule, the “distribution of total score of TCM symptom: Severe, number of patients” value (FAS, 1 month after treatment) was 19, the “distribution of total score of TCM symptom: Severe, percentage of patients” value (FAS, 1 month after treatment) was “(1.13%)” and the “fatigue score 0, % of patients” value (FAS, 1 month after treatment) was “(24.05%)”. For the same molecule, the “fatigue score 0, number of patients” value (FAS, 1 month after treatment) was 413, the “fatigue score 2, % of patients” value (FAS, 1 month after treatment) was “(60.75%)” and the “fatigue score 2, number of patients” value (FAS, 1 month after treatment) was 1043. The “fatigue score 4, % of patients” value (FAS, 1 month after treatment) was “(13.86%)”, the “fatigue score 4, number of patients” value (FAS, 1 month after treatment) was 238 and the “fatigue score 6, % of patients” value (FAS, 1 month after treatment) was “(1.34%)”. For the same molecule, the “fatigue score 6, number of patients” value (FAS, 1 month after treatment) was 23, the “pale complexion score 0, number of patients” value (FAS, 1 month after treatment) was 713 and the “pale complexion score 0, percent of patients” value (FAS, 1 month after treatment) was “(41.53%)”. The “pale complexion score 1, number of patients” value (FAS, 1 month after treatment) was 726, the “pale complexion score 1, percent of patients” value (FAS, 1 month after treatment) was “(42.28%)” and the “pale complexion score 2, number of patients” value (FAS, 1 month after treatment) was 245. The “pale complexion score 2, percent of patients” value (FAS, 1 month after treatment) was “(14.27%)”, the “pale complexion score 3, number of patients” value (FAS, 1 month after treatment) was 33 and the “pale complexion score 3, percent of patients” value (FAS, 1 month after treatment) was “(1.92%)”. For the same molecule, the “palpitation score 0, number of patients” value (FAS, 1 month after treatment) was 427, the “palpitation score 0, percent of patients” value (FAS, 1 month after treatment) was “(24.87%)” and the “palpitation score 1, number of patients” value (FAS, 1 month after treatment) was 1. The “palpitation score 1, percent of patients” value (FAS, 1 month after treatment) was “(0.06%)”, the “palpitation score 2, number of patients” value (FAS, 1 month after treatment) was 834 and the “palpitation score 2, percent of patients” value (FAS, 1 month after treatment) was “(48.57%)”. For the same molecule, the “palpitation score 4, number of patients” value (FAS, 1 month after treatment) was 398, the “palpitation score 4, percent of patients” value (FAS, 1 month after treatment) was “(23.18%)” and the “palpitation score 6, number of patients” value (FAS, 1 month after treatment) was 57. For the same molecule, the “palpitation score 6, percent of patients” value (FAS, 1 month after treatment) was “(3.32%)”, the “short breath score 0, % of patients” value (FAS, 1 month after treatment) was “(21.14%)” and the “short breath score 0, number of patients” value (FAS, 1 month after treatment) was 363. The “short breath score 3, % of patients” value (FAS, 1 month after treatment) was “(54.22%)”, the “short breath score 3, number of patients” value (FAS, 1 month after treatment) was 931 and the “short breath score 6, % of patients” value (FAS, 1 month after treatment) was “(23.88%)”. The “short breath score 6, number of patients” value (FAS, 1 month after treatment) was 410, the “short breath score 9, % of patients” value (FAS, 1 month after treatment) was “(0.76%)” and the “short breath score 9, number of patients” value (FAS, 1 month after treatment) was 13. The “spontaneous perspiration score 0, number of patients” value (FAS, 1 month after treatment) was 603, the “spontaneous perspiration score 0, percent of patients” value (FAS, 1 month after treatment) was “(35.12%)” and the “spontaneous perspiration score 1, number of patients” value (FAS, 1 month after treatment) was 879. The “spontaneous perspiration score 1, percent of patients” value (FAS, 1 month after treatment) was “(51.19%)”, the “spontaneous perspiration score 2, number of patients” value (FAS, 1 month after treatment) was 215 and the “spontaneous perspiration score 2, percent of patients” value (FAS, 1 month after treatment) was “(12.52%)”. For the same molecule, the “spontaneous perspiration score 3, number of patients” value (FAS, 1 month after treatment) was 20.
